Read-outs that look alike come from different tables or passages of the source.

For one data set, the system named is YFV. Put plainly: microbe, parasite or virus in culture. Type of data set: cell-based, yellow fever virus. Conditions: for EC50: read-out: Yellow fever EC50.
Data set [1] in a line: in vitro. Particulars: chlorocebus aethiops.
Data set [2] in a line: in vitro. Conditions: chlorocebus aethiops. This is another data set of the same source.
The next data set deals with DENV (serotype 2). Put plainly: microbe, parasite or virus in culture. Type of data set: cell-based, Dengue virus serotype 2. Conditions: for EC50: read-out: Dengue EC50.
Data set [3] has as its system Vero-B cells (ATCCCCL-81).

As for `Cc1ccc(NC(=O)c2ccccc2C(=O)Nc2ccc(C)cc2-c2cccs2)cc1` [7d, N^1-(4-methyl-2-(thiophen-2-yl)phenyl)-N^2-(p-tolyl)phthalamide], in the data set with YFV, the “Yellow fever SI” value is reported as over 1.6. In addition, the EC50 in the data set on YFV (Yellow fever virus, Vero B) was 23.2 µM; in the data set on DENV (serotype 2) (Dengue virus, Vero B) it was 14 µM. For the same compound, the CC50 is over 37 µM in the data set “in vitro [1]” (Yellow fever CC50) and over 117 µM in the data set “in vitro [2]”. Moreover, the “Dengue SI” value with DENV (serotype 2) is on record as over 8.

Regarding `Cc1cc(-c2ccccc2NC(=O)c2nccnc2C(=O)Nc2ccc(F)cc2)[nH]n1` [6m, N^2-(4-fluorophenyl)-N^3-(2-(3-methyl-1H-pyrazol-5-yl)phenyl)pyrazine-2,3-dicarboxamide], the “Yellow fever SI” value with YFV is reported as 10. For the same compound, the 50% effective concentration (EC50) in the data set on YFV (Yellow fever virus, Vero B) was 7.8 µM; in the data set with DENV (serotype 2) (Dengue virus, Vero B) it was 2.2 µM. In addition, in “in vitro [1]” (Yellow fever CC50), the CC50 at 168 h came to 77 µM. Further, the CC50 in the data set “in vitro [2]” was over 120 µM. Moreover, in the data set on DENV (serotype 2), the “Dengue SI” value is recorded as over 55. Further, the “fold increase of DENV inhibitory properties” value with DENV (serotype 2) turned out to be 12 fold.

In the case of `Cc1ccc(NC(=O)c2ccccc2C(=O)Nc2ccccc2-c2cc(C)n[nH]2)cc1` [7n, N^1-(2-(3-methyl-1H-pyrazol-5-yl)phenyl)-N^2-(p-tolyl)phthalamide], the “Yellow fever SI” value in the data set on YFV was over 21. The EC50 with YFV (Yellow fever virus, Vero B) was found to be 5.8 µM; with DENV (serotype 2) (Dengue virus, Vero B), 14.1 µM. Besides, the CC50 in the data set “in vitro [1]” (Yellow fever CC50) and in “in vitro [2]” was over 122 µM in each case. For the same compound, the “Dengue SI” value in the data set on DENV (serotype 2) is given as over 9.

On to “N^1-(4-fluorophenyl)-N^2-(2-(thiophen-3-yl)benzyl)phthalamide [7i]”, for which, in the data set on YFV, the “Yellow fever SI” value is given as 53. The EC50 in the data set on YFV was found to be 1.4 µM; in the data set on DENV (serotype 2), 3 µM. The CC50 was 75 µM in data set [3] and 50 µM in the data set on Vero-B cells (ECACC). Besides, the “Dengue SI” value in the data set on DENV (serotype 2) stood at 17.

In the case of `Cc1ccc(NC(=O)c2nccnc2C(=O)Nc2ccc(F)cc2)c(-c2ccsc2)c1` [6g, N^2-(4-fluorophenyl)-N^3-(4-methyl-2-(thiophen-3-yl)phenyl)pyrazine-2,3-dicarboxamide], the “Yellow fever SI” value in the data set with YFV is over 11. The EC50 in the data set with YFV (Yellow fever virus, Vero B) was 10.6 µM; with DENV (serotype 2) (Dengue virus, Vero B), 2.1 µM. The CC50 in the data set “in vitro [1]” (Yellow fever CC50) and in “in vitro [2]” was over 116 µM in each case. Moreover, the “Dengue SI” value in the data set with DENV (serotype 2) is listed as over 55.

Turning to `Cc1ccc(NC(=O)c2ccccc2NC(=O)c2ccc(F)cc2)c(-c2ccsc2)c1` [13a, 2-(4-fluorobenzamido)-N-(4-methyl-2-(thiophen-3-yl)phenyl)benzamide], the EC50 was over 116 µM in the data set on YFV (Yellow fever virus, Vero B) and over 116 µM with DENV (serotype 2) (Dengue virus, Vero B). Also, the CC50 in “in vitro [1]” (Yellow fever CC50) and in “in vitro [2]” was over 116 µM in each case.

On to `Cc1ccc(NC(=O)c2nccnc2C(=O)NCc2ccccc2-c2ccsc2)cc1` [6j, N^2-(2-(thiophen-3-yl)benzyl)-N^3-(p-tolyl)pyrazine-2,3-dicarboxamide], for which the “Yellow fever SI” value in the data set with YFV is listed as 14. The EC50 is 5.4 µM in the data set with YFV and over 48 µM in the data set on DENV (serotype 2) (Dengue virus, Vero B). The CC50 at 168 h amounted to 75 µM in the data set “in vitro [1]” (Yellow fever CC50) and 48 µM in the data set “in vitro [2]”. The “Dengue SI” value in the data set with DENV (serotype 2) was determined as 1.

As for `Cc1ccc(NC(=O)c2ccccc2C(=O)Nc2ccc(F)cc2)c(-c2ccsc2)c1` [7h, N^1-(4-fluorophenyl)-N^2-(4-methyl-2-(thiophen-3-yl)phenyl)phthalamide], the “Yellow fever SI” value in the data set on YFV is listed as 10. Moreover, the EC50 in the data set on YFV (Yellow fever virus, Vero B) worked out at 6.5 µM; in the data set with DENV (serotype 2) (Dengue virus, Vero B), 3 µM. The CC50 at 168 h in the data set “in vitro [1]” (Yellow fever CC50) is 67 µM; in “in vitro [2]”, 47 µM. Also, the “Dengue SI” value in the data set on DENV (serotype 2) is recorded as 16.

Regarding `Cc1ccc(NC(=O)c2ccccc2NC(=O)c2ccc(F)cc2)c(-c2ccncc2)c1` [13c, 2-(4-fluorobenzamido)-N-(4-methyl-2-(pyridin-4-yl)phenyl)benzamide], the “Yellow fever SI” value in the data set with YFV is on record as 1. For the same compound, the 50% effective concentration (EC50) with YFV (Yellow fever virus, Vero B) was over 117 µM; in the data set with DENV (serotype 2) (Dengue virus, Vero B), 17 µM. Besides, the CC50 was over 50 µM in the data set “in vitro [1]” (Yellow fever CC50), 30 µM in “in vitro [1]” (Yellow fever CC50 (visual)) and over 117 µM in the data set “in vitro [2]”. The “Dengue SI” value in the data set with DENV (serotype 2) is over 7.

As for `Cc1ccc(NC(=O)c2ccccc2NC(=O)c2ccc(F)cc2)c(-c2cccnc2)c1` [13d, 2-(4-fluorobenzamido)-N-(4-methyl-2-(pyridin-3-yl)phenyl)benzamide], the “Yellow fever SI” value with YFV was 1. Further, the EC50 with YFV (Yellow fever virus, Vero B) is over 117 µM; with DENV (serotype 2) (Dengue virus, Vero B) it was 23 µM. In addition, the CC50 in “in vitro [1]” (Yellow fever CC50) was over 50 µM; in the data set “in vitro [1]” (Yellow fever CC50 (visual)) it was 39 µM; in the data set “in vitro [2]”, over 117 µM. Further, in the data set with DENV (serotype 2), the “Dengue SI” value is on record as over 5.

The values are drawn from article PMC4999056 (European Journal of Medicinal Chemistry, 2016).
